Data published in ChEMBL document CHEMBL1201862, “PubChem BioAssay data set” (2004).
One block for each compound: values may come before it. Activity calls are given as the source filed them.

Columns and labels:
[1] = target: T1, Fatty acid synthase (Homo sapiens, UniProt P49327); assay: inhibition of human FAS-TE enzyme activity – biochemical, kinetic fluorescence intensity, dose response (AID 624326); format: functional;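 note: rate of fluorescence rise from hydrolysis of a fluorogenic O-methyl fluorescein ester substrate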
T1 sequence (P49327 whole entry): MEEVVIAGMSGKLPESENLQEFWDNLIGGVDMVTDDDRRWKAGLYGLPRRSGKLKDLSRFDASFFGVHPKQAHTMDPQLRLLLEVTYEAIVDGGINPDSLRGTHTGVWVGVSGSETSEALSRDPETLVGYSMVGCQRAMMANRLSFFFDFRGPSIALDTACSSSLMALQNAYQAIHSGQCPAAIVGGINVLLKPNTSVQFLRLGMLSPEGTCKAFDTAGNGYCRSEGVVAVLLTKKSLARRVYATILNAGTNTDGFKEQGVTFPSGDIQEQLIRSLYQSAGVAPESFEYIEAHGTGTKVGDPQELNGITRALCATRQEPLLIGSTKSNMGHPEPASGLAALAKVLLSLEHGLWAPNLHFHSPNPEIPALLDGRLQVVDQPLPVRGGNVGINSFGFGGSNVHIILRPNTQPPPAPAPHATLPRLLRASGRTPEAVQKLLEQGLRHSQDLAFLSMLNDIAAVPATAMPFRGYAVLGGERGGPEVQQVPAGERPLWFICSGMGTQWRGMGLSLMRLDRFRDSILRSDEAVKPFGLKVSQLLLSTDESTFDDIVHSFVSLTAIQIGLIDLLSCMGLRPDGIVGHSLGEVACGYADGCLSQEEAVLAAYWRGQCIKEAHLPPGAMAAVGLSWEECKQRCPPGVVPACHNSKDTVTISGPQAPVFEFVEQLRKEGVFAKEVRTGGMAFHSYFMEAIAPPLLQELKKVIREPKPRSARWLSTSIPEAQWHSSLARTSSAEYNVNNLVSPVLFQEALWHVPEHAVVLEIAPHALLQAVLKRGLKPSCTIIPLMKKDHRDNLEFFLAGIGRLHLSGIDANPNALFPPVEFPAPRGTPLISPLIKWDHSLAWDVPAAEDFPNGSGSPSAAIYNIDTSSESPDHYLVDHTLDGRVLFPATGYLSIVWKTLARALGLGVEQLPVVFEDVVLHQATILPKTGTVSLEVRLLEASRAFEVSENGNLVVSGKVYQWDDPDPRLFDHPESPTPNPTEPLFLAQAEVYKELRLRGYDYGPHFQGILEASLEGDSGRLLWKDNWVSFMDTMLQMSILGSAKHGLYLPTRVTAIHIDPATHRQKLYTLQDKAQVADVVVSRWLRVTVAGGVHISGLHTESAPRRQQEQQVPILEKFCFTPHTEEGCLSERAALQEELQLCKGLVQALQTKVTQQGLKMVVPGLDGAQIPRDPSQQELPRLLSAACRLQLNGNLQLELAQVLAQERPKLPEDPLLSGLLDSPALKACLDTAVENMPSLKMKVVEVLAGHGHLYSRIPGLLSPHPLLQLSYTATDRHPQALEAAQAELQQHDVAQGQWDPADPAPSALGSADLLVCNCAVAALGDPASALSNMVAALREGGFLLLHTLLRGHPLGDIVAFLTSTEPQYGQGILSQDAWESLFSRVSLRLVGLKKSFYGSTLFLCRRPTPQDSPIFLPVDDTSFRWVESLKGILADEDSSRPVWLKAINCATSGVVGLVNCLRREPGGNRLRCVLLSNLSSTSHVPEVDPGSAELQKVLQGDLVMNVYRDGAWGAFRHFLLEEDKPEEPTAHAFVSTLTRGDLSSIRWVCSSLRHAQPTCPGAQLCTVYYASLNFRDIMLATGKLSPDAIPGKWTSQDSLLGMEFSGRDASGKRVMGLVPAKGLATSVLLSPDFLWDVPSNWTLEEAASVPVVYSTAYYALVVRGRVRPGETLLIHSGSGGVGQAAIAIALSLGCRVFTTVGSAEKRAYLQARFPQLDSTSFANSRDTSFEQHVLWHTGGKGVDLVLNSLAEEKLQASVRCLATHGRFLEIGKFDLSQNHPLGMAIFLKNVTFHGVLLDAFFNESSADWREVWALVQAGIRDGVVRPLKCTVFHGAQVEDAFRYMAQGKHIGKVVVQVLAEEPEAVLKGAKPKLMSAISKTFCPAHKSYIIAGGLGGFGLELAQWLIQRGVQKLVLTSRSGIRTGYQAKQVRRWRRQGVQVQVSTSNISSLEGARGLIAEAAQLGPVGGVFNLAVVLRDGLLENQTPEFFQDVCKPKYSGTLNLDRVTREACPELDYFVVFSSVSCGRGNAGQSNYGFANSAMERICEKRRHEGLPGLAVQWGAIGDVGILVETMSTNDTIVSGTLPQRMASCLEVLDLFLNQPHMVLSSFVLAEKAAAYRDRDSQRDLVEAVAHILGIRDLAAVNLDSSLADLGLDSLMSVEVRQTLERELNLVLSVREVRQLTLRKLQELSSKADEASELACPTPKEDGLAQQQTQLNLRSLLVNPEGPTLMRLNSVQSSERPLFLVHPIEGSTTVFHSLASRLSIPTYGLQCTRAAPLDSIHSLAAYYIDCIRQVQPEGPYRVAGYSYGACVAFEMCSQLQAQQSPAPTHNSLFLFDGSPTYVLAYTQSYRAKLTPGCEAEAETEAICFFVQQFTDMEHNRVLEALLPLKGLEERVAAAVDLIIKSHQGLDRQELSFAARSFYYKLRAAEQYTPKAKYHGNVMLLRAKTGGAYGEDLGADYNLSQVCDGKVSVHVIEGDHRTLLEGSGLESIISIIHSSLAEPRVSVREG

[2] = target: T2, Corticotropin-releasing factor receptor 2/Corticotropin-releasing factor-binding protein (Homo sapiens, UniProt P24387+Q13324); assay: activators of CRF receptor 2 with binding protein – uHTS hits, confirmation (AID 602473); format: functional; conditions: read-out: EC50_Mean
T2 sequence (Q13324 whole entry): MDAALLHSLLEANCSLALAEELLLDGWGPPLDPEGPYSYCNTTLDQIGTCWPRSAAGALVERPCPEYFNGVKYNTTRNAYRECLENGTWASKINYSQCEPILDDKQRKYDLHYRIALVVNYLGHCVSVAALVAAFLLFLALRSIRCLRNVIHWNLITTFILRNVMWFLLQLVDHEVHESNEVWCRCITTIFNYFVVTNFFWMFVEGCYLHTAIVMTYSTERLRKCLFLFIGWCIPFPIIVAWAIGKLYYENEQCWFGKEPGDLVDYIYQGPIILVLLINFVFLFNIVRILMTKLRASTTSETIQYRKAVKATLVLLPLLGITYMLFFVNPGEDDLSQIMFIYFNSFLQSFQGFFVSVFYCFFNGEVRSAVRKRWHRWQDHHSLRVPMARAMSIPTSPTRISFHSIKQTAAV
T2 sequence (P24387 whole entry): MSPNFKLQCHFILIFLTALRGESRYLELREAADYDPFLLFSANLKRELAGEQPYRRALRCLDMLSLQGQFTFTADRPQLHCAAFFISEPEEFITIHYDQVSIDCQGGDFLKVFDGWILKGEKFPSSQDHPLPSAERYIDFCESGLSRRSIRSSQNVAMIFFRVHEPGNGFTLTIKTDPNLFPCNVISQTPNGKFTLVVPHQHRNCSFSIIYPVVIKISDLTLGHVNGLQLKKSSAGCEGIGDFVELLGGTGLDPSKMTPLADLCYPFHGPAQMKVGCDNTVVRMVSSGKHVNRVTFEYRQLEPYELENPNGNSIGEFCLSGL

[3] = target: T1, Fatty acid synthase; assay: inhibition of human FAS-TE enzyme activity – biochemical, endpoint fluorescence intensity, uHTS hits, dose response (AID 624327); format: functional;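 note: fluorescence from hydrolysis of an O-methyl fluorescein acyl ester substrate by the enzyme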
[4] = target: T2, Corticotropin-releasing factor receptor 2/Corticotropin-releasing factor-binding protein; assay: Dose Response confirmation of uHTS hits for small molecule antagonists of the CRF-binding protein and CRF-R2 receptor complex.; format: functional; conditions: read-out: IC50_Mean
[5] = target: Keap1/Nrf2 (Homo sapiens, UniProt Q14145); assay: disruptors of Keap1 binding to Nrf2 peptide – biochemical, fluorescence polarization, cherry-picked samples, dose response (AID 588683)
Chain of Keap1/Nrf2 (Q16236 whole entry): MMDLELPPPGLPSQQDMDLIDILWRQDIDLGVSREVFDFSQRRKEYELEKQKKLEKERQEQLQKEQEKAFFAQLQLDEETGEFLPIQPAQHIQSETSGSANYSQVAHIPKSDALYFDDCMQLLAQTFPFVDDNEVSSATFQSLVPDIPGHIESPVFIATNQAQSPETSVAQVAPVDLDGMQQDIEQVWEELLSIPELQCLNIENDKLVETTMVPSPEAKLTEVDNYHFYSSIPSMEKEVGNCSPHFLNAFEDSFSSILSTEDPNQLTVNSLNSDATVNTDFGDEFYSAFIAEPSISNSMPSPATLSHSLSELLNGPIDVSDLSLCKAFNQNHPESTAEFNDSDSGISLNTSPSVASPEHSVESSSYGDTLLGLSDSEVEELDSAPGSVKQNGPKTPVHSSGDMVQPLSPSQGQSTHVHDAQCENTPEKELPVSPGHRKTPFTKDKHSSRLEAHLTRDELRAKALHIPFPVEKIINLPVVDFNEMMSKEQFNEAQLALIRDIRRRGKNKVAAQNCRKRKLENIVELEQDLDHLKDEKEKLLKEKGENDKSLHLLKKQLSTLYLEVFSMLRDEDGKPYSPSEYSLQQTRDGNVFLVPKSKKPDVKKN
Chain of Keap1/Nrf2 (Q14145 whole entry): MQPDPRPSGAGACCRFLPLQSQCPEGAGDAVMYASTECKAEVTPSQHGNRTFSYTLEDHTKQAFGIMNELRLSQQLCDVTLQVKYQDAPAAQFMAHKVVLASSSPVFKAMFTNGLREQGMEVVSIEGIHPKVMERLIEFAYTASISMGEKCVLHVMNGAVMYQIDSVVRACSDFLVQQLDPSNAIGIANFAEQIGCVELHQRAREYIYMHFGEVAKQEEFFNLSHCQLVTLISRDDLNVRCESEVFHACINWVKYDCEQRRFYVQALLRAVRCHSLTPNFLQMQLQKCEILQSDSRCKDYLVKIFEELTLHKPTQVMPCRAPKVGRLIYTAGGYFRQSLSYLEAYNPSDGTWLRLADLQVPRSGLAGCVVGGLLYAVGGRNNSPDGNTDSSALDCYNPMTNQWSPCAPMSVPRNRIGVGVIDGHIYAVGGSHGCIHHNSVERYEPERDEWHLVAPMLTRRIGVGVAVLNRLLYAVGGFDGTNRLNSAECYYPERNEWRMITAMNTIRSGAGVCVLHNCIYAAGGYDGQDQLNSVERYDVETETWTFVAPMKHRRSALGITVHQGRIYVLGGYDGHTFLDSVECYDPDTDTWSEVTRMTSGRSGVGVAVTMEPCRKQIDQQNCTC

[6] = target: Phospholipase A2 (Homo sapiens, UniProt P04054); assay: phospholipase A2 activity inhibition – biochemical, set 2, counter-screen for ATG4B inhibitor project, dose response (AID 588586); format: functional
Chain of Phospholipase A2 (P04054 whole entry): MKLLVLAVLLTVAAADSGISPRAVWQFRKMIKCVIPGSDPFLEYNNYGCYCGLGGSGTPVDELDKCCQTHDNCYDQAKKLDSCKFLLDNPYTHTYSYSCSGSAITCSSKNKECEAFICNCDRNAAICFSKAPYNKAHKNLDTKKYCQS

[7] = Luminescence Cell-Based Dose Retest to Confirm Inhibitors of Cancer Stem Cells. [Related pubchem assays (depositor defined):AID2717, AID2721]; format: functional; conditions: Homo sapiens
[8] = target: Cysteine protease ATG4B (Homo sapiens, UniProt Q9Y4P1); assay: autophagin-1 cysteine protease inhibition – biochemical, fluorescence, set 2, dose response (AID 588584); format: functional
Chain of Cysteine protease ATG4B (Q9Y4P1 whole entry): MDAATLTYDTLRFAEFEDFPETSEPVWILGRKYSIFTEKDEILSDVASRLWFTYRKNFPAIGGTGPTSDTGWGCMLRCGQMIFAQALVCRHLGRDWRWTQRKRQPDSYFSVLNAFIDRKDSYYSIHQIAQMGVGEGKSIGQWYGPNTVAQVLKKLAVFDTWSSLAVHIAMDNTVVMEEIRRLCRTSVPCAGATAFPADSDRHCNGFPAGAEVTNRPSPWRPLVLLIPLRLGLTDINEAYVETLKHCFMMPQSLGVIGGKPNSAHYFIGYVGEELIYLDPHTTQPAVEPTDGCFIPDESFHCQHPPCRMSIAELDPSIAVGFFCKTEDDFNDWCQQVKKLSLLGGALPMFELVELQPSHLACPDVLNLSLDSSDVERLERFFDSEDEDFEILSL

[9] = test system: Escherichia coli; assay: microbe, parasite or virus in culture
[10] = target: T3, Tyrosine-protein phosphatase non-receptor type 22 (Homo sapiens, UniProt Q9Y2R2); assay: PubChem AID 2135
T3 sequence (Q9Y2R2 whole entry): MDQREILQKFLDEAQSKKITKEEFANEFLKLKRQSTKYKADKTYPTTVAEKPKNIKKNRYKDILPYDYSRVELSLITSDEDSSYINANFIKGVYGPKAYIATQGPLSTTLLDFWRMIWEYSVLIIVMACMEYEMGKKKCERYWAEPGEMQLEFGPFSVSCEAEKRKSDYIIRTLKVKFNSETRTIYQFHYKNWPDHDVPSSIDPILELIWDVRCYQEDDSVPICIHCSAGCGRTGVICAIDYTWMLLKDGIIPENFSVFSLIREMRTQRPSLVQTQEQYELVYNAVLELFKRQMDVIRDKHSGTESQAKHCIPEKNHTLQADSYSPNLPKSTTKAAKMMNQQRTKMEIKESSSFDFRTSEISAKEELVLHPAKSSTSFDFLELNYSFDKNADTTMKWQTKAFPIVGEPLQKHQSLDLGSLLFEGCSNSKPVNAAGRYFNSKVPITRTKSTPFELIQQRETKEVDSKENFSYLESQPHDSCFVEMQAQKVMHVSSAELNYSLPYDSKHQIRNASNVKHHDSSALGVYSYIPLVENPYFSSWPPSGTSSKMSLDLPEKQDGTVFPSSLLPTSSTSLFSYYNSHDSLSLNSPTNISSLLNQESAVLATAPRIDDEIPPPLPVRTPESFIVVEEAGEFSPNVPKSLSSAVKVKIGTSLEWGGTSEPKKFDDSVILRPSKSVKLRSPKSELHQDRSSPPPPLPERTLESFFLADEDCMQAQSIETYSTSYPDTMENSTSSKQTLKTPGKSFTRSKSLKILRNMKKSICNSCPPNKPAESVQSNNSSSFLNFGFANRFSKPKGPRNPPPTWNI

[11] = target: T4, Heat shock factor protein 1 (Mus musculus, UniProt P38532); assay: enhancement of HSF1-driven luciferase signal – cell-based, NIH3T3, luminescence, dose retest, confirmation (AID 435004); format: functional;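 note: stress induced by proteasome inhibitor MG132 added 30 min after compound; luciferase reporter driven by HSF1 response element in NIH3T3 cells; actives raise luminescence as potentiators of the MG132 stress response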
T4 sequence (P38532 whole entry): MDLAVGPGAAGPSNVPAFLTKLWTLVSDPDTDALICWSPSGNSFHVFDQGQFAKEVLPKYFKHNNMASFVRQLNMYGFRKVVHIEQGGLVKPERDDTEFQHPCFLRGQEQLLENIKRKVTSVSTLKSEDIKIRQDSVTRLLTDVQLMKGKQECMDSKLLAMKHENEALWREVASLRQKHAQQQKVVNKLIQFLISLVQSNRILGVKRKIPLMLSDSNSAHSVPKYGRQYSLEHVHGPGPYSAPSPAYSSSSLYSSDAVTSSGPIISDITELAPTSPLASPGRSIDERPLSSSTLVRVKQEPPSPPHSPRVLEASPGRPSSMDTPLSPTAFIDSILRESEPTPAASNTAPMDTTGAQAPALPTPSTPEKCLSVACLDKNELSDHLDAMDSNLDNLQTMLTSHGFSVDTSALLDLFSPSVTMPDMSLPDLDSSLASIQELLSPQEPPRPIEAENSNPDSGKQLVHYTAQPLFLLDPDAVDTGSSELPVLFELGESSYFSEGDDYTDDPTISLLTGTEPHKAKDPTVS

[12] = target: T3, Tyrosine-protein phosphatase non-receptor type 22; assay: SAR LYP1 Fluorescent Assay using pCAP substrate for In Vitro dose response studies - Set 2. [Related pubchem assays (depositor defined):AID1779, AID1784, AID2135, AID449727]; format: functional
[13] = target: T5, Tyrosine-protein phosphatase non-receptor type 7 (Homo sapiens, UniProt P35236); assay: inhibition of hematopoietic tyrosine phosphatase HePTP – biochemical, set 2, SAR follow-up (AID 449736); format: functional
T5 sequence (P35236 whole entry): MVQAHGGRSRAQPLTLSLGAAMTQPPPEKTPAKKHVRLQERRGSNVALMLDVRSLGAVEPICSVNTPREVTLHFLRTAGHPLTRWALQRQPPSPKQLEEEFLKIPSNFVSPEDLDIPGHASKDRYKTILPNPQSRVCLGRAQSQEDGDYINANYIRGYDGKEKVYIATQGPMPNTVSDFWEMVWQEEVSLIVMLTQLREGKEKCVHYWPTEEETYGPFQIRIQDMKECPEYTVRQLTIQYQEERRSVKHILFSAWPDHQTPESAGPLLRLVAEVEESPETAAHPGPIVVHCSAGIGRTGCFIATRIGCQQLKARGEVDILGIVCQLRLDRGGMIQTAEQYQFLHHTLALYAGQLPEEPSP

[14] = target: T3, Tyrosine-protein phosphatase non-receptor type 22; assay: SAR LYP1 Fluorescent Assay using OMFP substrate for In Vitro dose response studies - Set 3. [Related pubchem assays (depositor defined):AID1779, AID1784, AID2140, AID2686]; format: functional
[15] = target: Tyrosine-protein phosphatase non-receptor type 12 (Homo sapiens, UniProt Q05209); assay: SAR Selectivity Analysis of small molecule inhibitors of PEST using pCAP in a fluorescence assay. [Related pubchem assays (depositor defined):AID1779, AID1784, AID2135]; format: functional
Chain of Tyrosine-protein phosphatase non-receptor type 12 (Q05209 whole entry): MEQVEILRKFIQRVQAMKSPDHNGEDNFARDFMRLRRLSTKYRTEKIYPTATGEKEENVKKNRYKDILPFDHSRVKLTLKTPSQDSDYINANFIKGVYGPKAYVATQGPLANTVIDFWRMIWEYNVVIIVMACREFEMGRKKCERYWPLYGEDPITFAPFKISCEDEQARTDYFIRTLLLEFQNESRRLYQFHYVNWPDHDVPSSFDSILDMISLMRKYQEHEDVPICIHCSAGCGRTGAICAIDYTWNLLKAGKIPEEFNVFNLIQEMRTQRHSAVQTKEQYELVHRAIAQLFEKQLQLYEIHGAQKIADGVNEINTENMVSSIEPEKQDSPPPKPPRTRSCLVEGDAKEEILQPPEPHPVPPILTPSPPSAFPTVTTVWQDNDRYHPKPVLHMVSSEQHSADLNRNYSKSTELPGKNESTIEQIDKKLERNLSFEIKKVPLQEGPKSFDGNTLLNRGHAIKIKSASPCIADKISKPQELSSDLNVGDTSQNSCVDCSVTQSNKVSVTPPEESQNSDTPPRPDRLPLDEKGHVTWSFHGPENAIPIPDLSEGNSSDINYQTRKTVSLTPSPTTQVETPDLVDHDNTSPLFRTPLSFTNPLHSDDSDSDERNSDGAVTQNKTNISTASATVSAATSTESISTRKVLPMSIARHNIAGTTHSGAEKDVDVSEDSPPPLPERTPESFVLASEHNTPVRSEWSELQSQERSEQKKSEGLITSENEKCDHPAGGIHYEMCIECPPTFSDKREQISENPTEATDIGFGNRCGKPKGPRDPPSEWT

[16] = target: T3, Tyrosine-protein phosphatase non-receptor type 22; assay: PTPN22 lymphoid phosphatase activity blockers – biochemical, fluorescence intensity, uHTS (AID 1779)
[17] = target: T5, Tyrosine-protein phosphatase non-receptor type 7; format: functional
[18] = target: T3, Tyrosine-protein phosphatase non-receptor type 22; assay: PubChem AID 2140
[19] = target: T3, Tyrosine-protein phosphatase non-receptor type 22; format: functional
[20] = target: T3, Tyrosine-protein phosphatase non-receptor type 22; assay: SAR LYP1 Fluorescent Assay using OMFP substrate for In Vitro dose response studies - Set 2. [Related pubchem assays (depositor defined):AID1779, AID1784, AID2140, AID449726, AID488869]; format: functional
[21] = target: T6, Apoptotic protease-activating factor 1 (Homo sapiens, UniProt O14727); assay: activation of Apaf-1 mediated apoptosis – fluorescent, uHTS hits, dose response (AID 588554); format: functional
T6 sequence (O14727 whole entry): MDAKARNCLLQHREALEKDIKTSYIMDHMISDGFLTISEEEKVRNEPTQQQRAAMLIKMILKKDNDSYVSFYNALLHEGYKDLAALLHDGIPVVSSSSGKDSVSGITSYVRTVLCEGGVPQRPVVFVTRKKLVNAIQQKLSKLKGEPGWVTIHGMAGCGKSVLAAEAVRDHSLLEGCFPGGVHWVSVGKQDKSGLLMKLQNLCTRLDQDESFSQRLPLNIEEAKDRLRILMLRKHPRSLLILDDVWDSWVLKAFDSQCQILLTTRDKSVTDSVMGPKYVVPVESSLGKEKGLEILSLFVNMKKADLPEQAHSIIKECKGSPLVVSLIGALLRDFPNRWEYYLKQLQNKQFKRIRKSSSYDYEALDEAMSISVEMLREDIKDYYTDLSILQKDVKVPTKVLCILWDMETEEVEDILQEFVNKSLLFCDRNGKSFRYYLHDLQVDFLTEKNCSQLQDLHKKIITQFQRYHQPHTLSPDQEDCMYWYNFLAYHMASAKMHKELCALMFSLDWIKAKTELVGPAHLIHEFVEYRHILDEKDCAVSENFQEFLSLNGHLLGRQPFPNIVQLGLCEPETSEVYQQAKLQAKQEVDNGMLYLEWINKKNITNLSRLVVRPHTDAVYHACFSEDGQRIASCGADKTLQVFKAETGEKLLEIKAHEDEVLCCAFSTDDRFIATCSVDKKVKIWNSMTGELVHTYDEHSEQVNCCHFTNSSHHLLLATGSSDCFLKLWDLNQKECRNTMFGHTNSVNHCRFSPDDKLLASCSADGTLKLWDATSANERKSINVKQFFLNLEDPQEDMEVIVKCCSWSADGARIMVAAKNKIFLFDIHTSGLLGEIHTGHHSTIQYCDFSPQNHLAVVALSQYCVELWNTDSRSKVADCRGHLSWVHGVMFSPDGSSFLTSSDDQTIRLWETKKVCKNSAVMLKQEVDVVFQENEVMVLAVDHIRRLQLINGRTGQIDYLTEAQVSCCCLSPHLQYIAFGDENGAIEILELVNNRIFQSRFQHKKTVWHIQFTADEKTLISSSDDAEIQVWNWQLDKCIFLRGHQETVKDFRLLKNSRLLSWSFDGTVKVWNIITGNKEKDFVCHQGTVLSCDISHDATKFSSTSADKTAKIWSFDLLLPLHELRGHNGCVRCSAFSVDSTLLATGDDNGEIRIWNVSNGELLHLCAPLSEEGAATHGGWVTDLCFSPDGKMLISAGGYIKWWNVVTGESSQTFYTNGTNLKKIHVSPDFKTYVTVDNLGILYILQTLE

[22] = target: T3, Tyrosine-protein phosphatase non-receptor type 22; format: functional; remark: listed apart in the source

- IC50 [1]: 9.07 µM (active)
- EC50 [2]: 38.6 µM (active)
- IC50 [3]: 13.3 µM (active)
- IC50 [4]: 0.754 µM (active)
- AC50 [5]: 25.7 µM (active)
SMILES: COc1ccc(C(C)=NNc2ccc([N+](=O)[O-])cc2S(=O)(=O)Nc2ccccc2C(=O)O)c(OC)c1

SMILES: COc1ccc(OC)c(NC(=O)c2nnn(Cc3ccccc3C)c2N)c1
- IC50 [6]: 13.4 µM (active)
- AC50 [7]: 2.47 µM (active)
- IC50 [8]: 19.9 µM (active)

SMILES: CCn1c(=O)c2c3c(sc2n2c(S)nnc12)CCC3
- AC50 [9]: 24.2 µM (active)

- IC50 [10]: 4.96 µM (active)
- EC50 [11]: 10.9 µM (active)
- IC50 [12]: 6.54 µM (active)
- IC50 [13]: 0.651 µM (active)
- IC50 [14]: 4.74 µM (active)
- IC50 [15]: 2.91 µM (active)
- IC50 [16]: 8.62 µM (active)
- IC50 [17]: 14.6 µM (active)
- IC50 [18]: 34.2 µM (active)
- IC50 [19]: 6.42 µM (active)
- IC50 [20]: 3.77 µM (active)
- EC50 [21]: 20.8 µM (active)
- IC50 [22]: 6.86 µM (active)
SMILES: N#C/C(=C\c1ccc(OCc2ccc(Cl)cc2)cc1)C(=O)Nc1cccc(C(=O)O)c1
